# Measured values as given in publication PMC3914206.
# Columns and labels:
# Type in all cases: binding
# panel of 442 kinases [1] = molecular target: T1, panel of 442 kinases (Homo sapiens, UniProt Q9UBF8); conditions: Compound Concentration 10 µM
# T1 construct: purchased KINOMEscan
# Text: (§1) We assessed the selectivity of members of this scaffold using the KINOMEscan methodology across a near comprehensive panel of 442 kinases [[18,27]].
# panel of 442 kinases [2] = molecular target: T2, panel of 442 kinases (Homo sapiens, UniProt P0C264); conditions: kinase SgK110; compound concentration 10 µM
# T2 construct: purchased KINOMEscan
# T2 sequence (P0C264 1-359): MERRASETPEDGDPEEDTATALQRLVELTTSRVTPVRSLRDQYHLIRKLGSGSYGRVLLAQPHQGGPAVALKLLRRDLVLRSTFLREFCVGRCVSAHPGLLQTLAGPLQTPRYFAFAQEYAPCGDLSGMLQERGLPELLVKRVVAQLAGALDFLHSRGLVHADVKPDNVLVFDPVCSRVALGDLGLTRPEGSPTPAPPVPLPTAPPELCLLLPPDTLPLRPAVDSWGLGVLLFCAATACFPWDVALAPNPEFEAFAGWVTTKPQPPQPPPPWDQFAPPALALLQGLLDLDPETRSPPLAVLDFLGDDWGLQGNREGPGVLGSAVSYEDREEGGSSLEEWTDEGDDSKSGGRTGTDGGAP
# Text: as §1
# panel of 442 kinases [3] = molecular target: T3, panel of 442 kinases (Homo sapiens, UniProt Q9UBE8); conditions: Compound Concentration 10 µM
# T3 construct: purchased KINOMEscan
# T3 sequence (Q9UBE8 1-527): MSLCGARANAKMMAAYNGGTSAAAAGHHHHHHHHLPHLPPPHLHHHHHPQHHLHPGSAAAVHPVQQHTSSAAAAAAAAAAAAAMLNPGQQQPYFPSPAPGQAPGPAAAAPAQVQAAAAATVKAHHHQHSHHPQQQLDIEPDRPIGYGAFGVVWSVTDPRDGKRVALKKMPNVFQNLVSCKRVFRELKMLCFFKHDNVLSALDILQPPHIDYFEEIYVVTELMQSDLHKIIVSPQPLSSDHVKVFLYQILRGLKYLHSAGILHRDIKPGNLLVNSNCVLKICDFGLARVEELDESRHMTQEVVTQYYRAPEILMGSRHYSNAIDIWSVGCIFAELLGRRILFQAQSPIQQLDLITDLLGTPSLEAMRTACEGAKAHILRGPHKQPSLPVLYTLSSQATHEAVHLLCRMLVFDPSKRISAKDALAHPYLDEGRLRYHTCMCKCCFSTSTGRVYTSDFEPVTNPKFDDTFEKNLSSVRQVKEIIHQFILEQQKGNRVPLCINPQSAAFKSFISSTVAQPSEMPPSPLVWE
# Text: as §1
# T1 sequence (Q9UBF8 whole entry): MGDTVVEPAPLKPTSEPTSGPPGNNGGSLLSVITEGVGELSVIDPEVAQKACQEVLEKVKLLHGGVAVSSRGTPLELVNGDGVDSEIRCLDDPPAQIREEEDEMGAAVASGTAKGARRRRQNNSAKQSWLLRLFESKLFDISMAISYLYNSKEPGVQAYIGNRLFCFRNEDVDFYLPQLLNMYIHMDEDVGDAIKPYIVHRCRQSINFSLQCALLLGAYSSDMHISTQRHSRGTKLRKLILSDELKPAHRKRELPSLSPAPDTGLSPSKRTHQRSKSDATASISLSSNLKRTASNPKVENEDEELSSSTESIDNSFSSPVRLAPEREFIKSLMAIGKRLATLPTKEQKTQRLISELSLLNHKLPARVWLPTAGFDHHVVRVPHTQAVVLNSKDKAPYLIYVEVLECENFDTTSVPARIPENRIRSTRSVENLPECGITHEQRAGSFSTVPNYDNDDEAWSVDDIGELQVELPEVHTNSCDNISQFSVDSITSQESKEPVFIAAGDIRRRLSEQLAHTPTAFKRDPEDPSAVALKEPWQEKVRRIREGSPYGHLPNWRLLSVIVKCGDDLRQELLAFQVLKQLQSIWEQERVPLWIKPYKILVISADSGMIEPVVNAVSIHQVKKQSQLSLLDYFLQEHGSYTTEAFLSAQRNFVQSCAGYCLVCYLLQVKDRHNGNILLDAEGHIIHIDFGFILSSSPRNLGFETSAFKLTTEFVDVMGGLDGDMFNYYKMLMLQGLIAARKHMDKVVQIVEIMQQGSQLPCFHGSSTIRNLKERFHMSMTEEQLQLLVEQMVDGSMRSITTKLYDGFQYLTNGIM
Structure (SMILES),KINOMEscan: PIK4CB (panel of 442 kinases [1]),"% Ctrl, SgK110 (panel of 442 kinases [2]) [% Ctrl]",KINOMEscan: NLK (panel of 442 kinases [3])
COc1cc(C(=O)N2CCC(N3CCN(C)CC3)CC2)ccc1Nc1ncc2c(n1)N(C)c1ccccc1C(=O)N2C [15 (LRRK2-IN-1)],95,62,50
COc1cc(C(=O)N2CCC(N3CCN(C)CC3)CC2)ccc1Nc1ncc2c(n1)N1CCc3cccc(c31)C(=O)N2C [Compound 24],,,68
"COc1cc(C(=O)N2CCC(N3CCN(C)CC3)CC2)ccc1Nc1ncc2c(n1)N(C1CCCC1)c1ccccc1C(=O)N2C [Compound 25, 11-cyclopentyl-2-((2-methoxy-4-(4-(4-methylpiperazin-1-yl)piperidine-1-carbonyl)phenyl)amino)-5-methyl-5H-benzo[e]pyrimido[5,4-b][1,4]diazepin-6(11H)-one]",100,43,63
CCOc1cc(C(=O)N2CCC(N3CCN(C)CC3)CC2)ccc1Nc1ncc2c(n1)N(C1CCCC1)c1ccccc1C(=O)N2C [Compound 26],100,81,78
